Assay results: patent publication US20110144159A1, “ETHER BENZYLIDENE PIPERIDINE ARYL CARBOXAMIDE COMPOUNDS USEFUL AS FAAH INHIBITORS” (Pfizer Inc, priority 2008, published 2011)

Target: T1, Human FAAH (Homo sapiens, UniProt O00519)
T1 construct: made in house
T1 sequence (O00519 32-579 limits assumed): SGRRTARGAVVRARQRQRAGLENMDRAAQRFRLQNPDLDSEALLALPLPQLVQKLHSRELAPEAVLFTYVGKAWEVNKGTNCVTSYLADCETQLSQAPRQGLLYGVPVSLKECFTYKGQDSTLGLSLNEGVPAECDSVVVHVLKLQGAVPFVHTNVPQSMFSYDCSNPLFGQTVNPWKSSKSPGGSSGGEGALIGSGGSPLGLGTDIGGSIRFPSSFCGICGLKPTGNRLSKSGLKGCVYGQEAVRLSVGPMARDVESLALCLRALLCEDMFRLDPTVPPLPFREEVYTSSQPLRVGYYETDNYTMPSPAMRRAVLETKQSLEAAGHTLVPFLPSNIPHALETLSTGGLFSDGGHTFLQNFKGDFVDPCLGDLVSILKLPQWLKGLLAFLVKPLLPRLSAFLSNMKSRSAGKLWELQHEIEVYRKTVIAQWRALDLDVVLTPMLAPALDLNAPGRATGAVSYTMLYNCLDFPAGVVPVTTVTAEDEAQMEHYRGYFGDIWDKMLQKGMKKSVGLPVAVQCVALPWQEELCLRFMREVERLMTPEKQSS
Experiment: FAAH assay (glutamate dehydrogenase-coupled, oleamide substrate, absorbance at 340 nm)
Format: biochemical
Details: for hFAAH KInact/K: irreversible inhibition potency; for kinact/KI: further compounds, read-out: hFAAH_Kinact/Ki—StL
Summary of the method: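 Human FAAH (1-4 nM) with 50 μM oleamide, coupled to glutamate dehydrogenase/NADH, pH 7.4, 7.5% DMSO and EtOH, 30° C; A340 read every 30 s for 90 min. Irreversible inhibition fitted for kobs per concentration, then Ki and kinact from kobs vs. [I].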

Row | Compound | hFAAH KInact/K [M⁻¹ s⁻¹] | kinact/KI [M⁻¹ s⁻¹]
1 | COc1ccc(CCOc2cccc(C=C3CCN(C(=O)Nc4cccnn4)CC3)c2)cc1 [Example 77, 4-{3-[2-(4-methoxyphenyl)ethoxy]benzylidene}-N-pyridazin-3-ylpiperidine-1-carboxamide] | 207 | –
2 | O=C(Nc1cccnn1)N1CCC(=Cc2cccc(OCCc3ccsc3)c2)CC1 [Example 78, N-pyridazin-3-yl-4-{3-[2-(3-thienyl)ethoxy]benzylidene}piperidine-1-carboxamide] | 35803 | –
3 | O=C(Nc1cccnn1)N1CCC(=Cc2cccc(OCCN3CCCCCC3)c2)CC1 [Example 80, 4-[3-(2-azepan-1-ylethoxy)benzylidene]-N-pyridazin-3-ylpiperidine-1-carboxamide] | 325 | –
4 | CC1(C)CCC(Oc2cccc(C=C3CCN(C(=O)Nc4cccnn4)CC3)c2)CC1 [Example 81, 4-{3-[(4,4-dimethylcyclohexyl)oxy]benzylidene}-N-pyridazin-3-ylpiperidine-1-carboxamide] | 3744 | –
5 | O=C(Nc1cccnn1)N1CCC(=Cc2cccc(OCC3CCC(F)(F)CC3)c2)CC1 [Example 82, 4-{3-[(4,4-difluorocyclohexyl)methoxy]benzylidene}-N-pyridazin-3-ylpiperidine-1-carboxamide] | 6850 | –
6 | O=C(Nc1cccnn1)N1CCC(=Cc2cccc(OCCC3CC3)c2)CC1 [Example 83, 4-[3-(2-cyclopropylethoxy)benzylidene]-N-pyridazin-3-ylpiperidine-1-carboxamide] | 22138 | –
7 | O=C(Nc1cccnn1)N1CCC(=Cc2cccc(OCCc3cccnc3)c2)CC1 [Example 84, N-pyridazin-3-yl-4-[3-(2-pyridin-3-ylethoxy)benzylidene]piperidine-1-carboxamide] | 10747 | –
8 | O=C(Nc1cccnn1)N1CCC(=Cc2cccc(OCC3CCCC3)c2)CC1 [Example 86, 4-[3-(cyclopentylmethoxy)benzylidene]-N-pyridazin-3-ylpiperidine-1-carboxamide] | 6267 | –
9 | O=C(Nc1cccnn1)N1CCC(=Cc2cccc(OCCc3ccccn3)c2)CC1 [Example 87, N-pyridazin-3-yl-4-[3-(2-pyridin-2-ylethoxy)benzylidene]piperidine-1-carboxamide] | 3485 | –
10 | O=C(Nc1cccnn1)N1CCC(=Cc2cccc(OCc3cc4ccccc4o3)c2)CC1 [Example 88, 4-[3-(1-benzofuran-2-ylmethoxy)benzylidene]-N-pyridazin-3-ylpiperidine-1-carboxamide] | 629 | –
11 | O=C(Nc1cccnn1)N1CCC(=Cc2cccc(OCCc3cccc(F)c3)c2)CC1 [Example 89, 4-{3-[2-(3-fluorophenyl)ethoxy]benzylidene}-N-pyridazin-3-ylpiperidine-1-carboxamide] | 25980 | –
12 | CC(Cc1ccccc1)Oc1cccc(C=C2CCN(C(=O)Nc3cccnn3)CC2)c1 (centres unmarked) [Example 91, 4-[3-(1-methyl-2-phenylethoxy)benzylidene]-N-pyridazin-3-ylpiperidine-1-carboxamide] | 7398 | –
13 | O=C(Nc1cccnn1)N1CCC(=Cc2cccc(OCCc3ccc(F)cc3)c2)CC1 [Example 92, 4-{3-[2-(4-fluorophenyl)ethoxy]benzylidene}-N-pyridazin-3-ylpiperidine-1-carboxamide] | 5205 | –
14 | CC1(COc2cccc(C=C3CCN(C(=O)Nc4cccnn4)CC3)c2)CC1 [Example 93, 4-{3-[(1-methylcyclopropyl)methoxy]benzylidene}-N-pyridazin-3-ylpiperidine-1-carboxamide] | 2090 | –
15 | O=C(Nc1cccnn1)N1CCC(=Cc2cccc(OCCCc3cnoc3)c2)CC1 [Example 94, 4-[3-(3-isoxazol-4-ylpropoxy)benzylidene]-N-pyridazin-3-ylpiperidine-1-carboxamide] | 27713 | –
16 | CC(C)(F)CCOc1cccc(C=C2CCN(C(=O)Nc3cccnn3)CC2)c1 [Example 95, 4-[3-(3-fluoro-3-methylbutoxy)benzylidene]-N-pyridazin-3-ylpiperidine-1-carboxamide] | 3869 | –

Row | Compound | hFAAH KInact/K [M⁻¹ s⁻¹] | kinact/KI [M⁻¹ s⁻¹]
17 | O=C(Nc1cccnn1)N1CCC(=Cc2cccc(OC3CCC(C(F)(F)F)CC3)c2)CC1 (centres unmarked) [Example 97, N-pyridazin-3-yl-4-(3-{[4-(trifluoromethyl)cyclohexyl]oxy}benzylidene)piperidine-1-carboxamide] | 3238 | –
18 | CCC(COC)Oc1cccc(C=C2CCN(C(=O)Nc3cccnn3)CC2)c1 (centres unmarked) [Example 98, 4-{3-[1-(methoxymethyl)propoxy]benzylidene}-N-pyridazin-3-ylpiperidine-1-carboxamide] | 276 | –
19 | CC(COc1cccc(C=C2CCN(C(=O)Nc3cccnn3)CC2)c1)CC(F)(F)F (centres unmarked) [Example 99, N-pyridazin-3-yl-4-[3-(4,4,4-trifluoro-2-methylbutoxy)benzylidene]piperidine-1-carboxamide] | 10896 | –
20 | O=C(Nc1cccnn1)N1CCC(=Cc2cccc(OCC3Cc4ccccc4O3)c2)CC1 (centres unmarked) [Example 100, 4-[3-(2,3-dihydro-1-benzofuran-2-ylmethoxy)benzylidene]-N-pyridazin-3-ylpiperidine-1-carboxamide] | 2505 | –
21 | CC1CCC(COc2cccc(C=C3CCN(C(=O)Nc4cccnn4)CC3)c2)CC1 (centres unmarked) [Example 101, 4-{3-[(4-methylcyclohexyl)methoxy]benzylidene}-N-pyridazin-3-ylpiperidine-1-carboxamide] | 3281 | –
22 | CC1CN(CCOc2cccc(C=C3CCN(C(=O)Nc4cccnn4)CC3)c2)CC(C)O1 (centres unmarked) [Example 102, 4-{3-[2-(2,6-dimethylmorpholin-4-yl)ethoxy]benzylidene}-N-pyridazin-3-ylpiperidine-1-carboxamide] | 207 | –
23 | O=C(Nc1cccnn1)N1CCC(=Cc2cccc(OCC3CCC(C(F)(F)F)CC3)c2)CC1 (centres unmarked) [Example 103, N-pyridazin-3-yl-4-(3-{[4-(trifluoromethyl)cyclohexyl]methoxy}benzylidene)piperidine-1-carboxamide] | 1537 | –
24 | O=C(Nc1cccnn1)N1CCC(=Cc2cccc(OCC3CCCCO3)c2)CC1 (centres unmarked) [Example 104, N-pyridazin-3-yl-4-[3-(tetrahydro-2H-pyran-2-ylmethoxy)benzylidene]piperidine-1-carboxamide] | 4050 | –
25 | Cc1ncsc1CCOc1cccc(C=C2CCN(C(=O)Nc3cccnn3)CC2)c1 [Example 105, 4-{3-[2-(4-methyl-1,3-thiazol-5-yl)ethoxy]benzylidene}-N-pyridazin-3-ylpiperidine-1-carboxamide] | 6410 | –
26 | O=C(Nc1cccnn1)N1CCC(=Cc2cccc(OC3CCC(F)(F)CC3)c2)CC1 [Example 106, 4-{3-[(4,4-difluorocyclohexyl)oxy]benzylidene}-N-pyridazin-3-ylpiperidine-1-carboxamide] | 16400 | –
27 | COc1cnc(NC(=O)N2CCC(=Cc3cccc(OCC4CCCCO4)c3)CC2)cn1 (centres unmarked) [N-(5-methoxypyrazin-2-yl)-4-[3-(tetrahydro-2H-pyran-2-ylmethoxy)benzylidene]piperidine-1-carboxamide] | – | 404
28 | COc1ccc(NC(=O)N2CCC(=Cc3cccc(OCC4CCCCO4)c3)CC2)cn1 (centres unmarked) [N-(6-methoxypyridin-3-yl)-4-[3-(tetrahydro-2H-pyran-2-ylmethoxy)benzylidene]piperidine-1-carboxamide] | – | 950
29 | Cc1ccc(NC(=O)N2CCC(=Cc3cccc(OCC4CCCCO4)c3)CC2)cn1 (centres unmarked) [N-(6-methylpyridin-3-yl)-4-[3-(tetrahydro-2H-pyran-2-ylmethoxy)benzylidene]piperidine-1-carboxamide] | – | 536
30 | O=C(Nc1cccnc1)N1CCC(=Cc2cccc(OCC3CCCCO3)c2)CC1 (centres unmarked) [N-pyridin-3-yl-4-[3-(tetrahydro-2H-pyran-2-ylmethoxy)benzylidene]piperidine-1-carboxamide] | – | 3130
31 | N-pyridazin-3-yl-4-[3-(2-pyridin-4-ylethoxy)benzylidene]piperidine-1-carboxamide [Example 79] | 3834 | –
32 | N-pyridazin-3-yl-4-[3-(pyridin-2-ylmethoxy)benzylidene]piperidine-1-carboxamide [Example 46] | 353 | –
